{"source": "patent US9549932B2", "about": "“2-(morpholin-4-yl)-1,7-naphthyridines” (BAYER PHARMA AKTIENGESELLSCHAFT, priority 2014, dated 2017)", "data": [{"target": "full-length human ATR protein (Homo sapiens (Human), UniProt Q13535)", "sequence (Q13535 other isoform, or with tags, fused parts or gaps)": "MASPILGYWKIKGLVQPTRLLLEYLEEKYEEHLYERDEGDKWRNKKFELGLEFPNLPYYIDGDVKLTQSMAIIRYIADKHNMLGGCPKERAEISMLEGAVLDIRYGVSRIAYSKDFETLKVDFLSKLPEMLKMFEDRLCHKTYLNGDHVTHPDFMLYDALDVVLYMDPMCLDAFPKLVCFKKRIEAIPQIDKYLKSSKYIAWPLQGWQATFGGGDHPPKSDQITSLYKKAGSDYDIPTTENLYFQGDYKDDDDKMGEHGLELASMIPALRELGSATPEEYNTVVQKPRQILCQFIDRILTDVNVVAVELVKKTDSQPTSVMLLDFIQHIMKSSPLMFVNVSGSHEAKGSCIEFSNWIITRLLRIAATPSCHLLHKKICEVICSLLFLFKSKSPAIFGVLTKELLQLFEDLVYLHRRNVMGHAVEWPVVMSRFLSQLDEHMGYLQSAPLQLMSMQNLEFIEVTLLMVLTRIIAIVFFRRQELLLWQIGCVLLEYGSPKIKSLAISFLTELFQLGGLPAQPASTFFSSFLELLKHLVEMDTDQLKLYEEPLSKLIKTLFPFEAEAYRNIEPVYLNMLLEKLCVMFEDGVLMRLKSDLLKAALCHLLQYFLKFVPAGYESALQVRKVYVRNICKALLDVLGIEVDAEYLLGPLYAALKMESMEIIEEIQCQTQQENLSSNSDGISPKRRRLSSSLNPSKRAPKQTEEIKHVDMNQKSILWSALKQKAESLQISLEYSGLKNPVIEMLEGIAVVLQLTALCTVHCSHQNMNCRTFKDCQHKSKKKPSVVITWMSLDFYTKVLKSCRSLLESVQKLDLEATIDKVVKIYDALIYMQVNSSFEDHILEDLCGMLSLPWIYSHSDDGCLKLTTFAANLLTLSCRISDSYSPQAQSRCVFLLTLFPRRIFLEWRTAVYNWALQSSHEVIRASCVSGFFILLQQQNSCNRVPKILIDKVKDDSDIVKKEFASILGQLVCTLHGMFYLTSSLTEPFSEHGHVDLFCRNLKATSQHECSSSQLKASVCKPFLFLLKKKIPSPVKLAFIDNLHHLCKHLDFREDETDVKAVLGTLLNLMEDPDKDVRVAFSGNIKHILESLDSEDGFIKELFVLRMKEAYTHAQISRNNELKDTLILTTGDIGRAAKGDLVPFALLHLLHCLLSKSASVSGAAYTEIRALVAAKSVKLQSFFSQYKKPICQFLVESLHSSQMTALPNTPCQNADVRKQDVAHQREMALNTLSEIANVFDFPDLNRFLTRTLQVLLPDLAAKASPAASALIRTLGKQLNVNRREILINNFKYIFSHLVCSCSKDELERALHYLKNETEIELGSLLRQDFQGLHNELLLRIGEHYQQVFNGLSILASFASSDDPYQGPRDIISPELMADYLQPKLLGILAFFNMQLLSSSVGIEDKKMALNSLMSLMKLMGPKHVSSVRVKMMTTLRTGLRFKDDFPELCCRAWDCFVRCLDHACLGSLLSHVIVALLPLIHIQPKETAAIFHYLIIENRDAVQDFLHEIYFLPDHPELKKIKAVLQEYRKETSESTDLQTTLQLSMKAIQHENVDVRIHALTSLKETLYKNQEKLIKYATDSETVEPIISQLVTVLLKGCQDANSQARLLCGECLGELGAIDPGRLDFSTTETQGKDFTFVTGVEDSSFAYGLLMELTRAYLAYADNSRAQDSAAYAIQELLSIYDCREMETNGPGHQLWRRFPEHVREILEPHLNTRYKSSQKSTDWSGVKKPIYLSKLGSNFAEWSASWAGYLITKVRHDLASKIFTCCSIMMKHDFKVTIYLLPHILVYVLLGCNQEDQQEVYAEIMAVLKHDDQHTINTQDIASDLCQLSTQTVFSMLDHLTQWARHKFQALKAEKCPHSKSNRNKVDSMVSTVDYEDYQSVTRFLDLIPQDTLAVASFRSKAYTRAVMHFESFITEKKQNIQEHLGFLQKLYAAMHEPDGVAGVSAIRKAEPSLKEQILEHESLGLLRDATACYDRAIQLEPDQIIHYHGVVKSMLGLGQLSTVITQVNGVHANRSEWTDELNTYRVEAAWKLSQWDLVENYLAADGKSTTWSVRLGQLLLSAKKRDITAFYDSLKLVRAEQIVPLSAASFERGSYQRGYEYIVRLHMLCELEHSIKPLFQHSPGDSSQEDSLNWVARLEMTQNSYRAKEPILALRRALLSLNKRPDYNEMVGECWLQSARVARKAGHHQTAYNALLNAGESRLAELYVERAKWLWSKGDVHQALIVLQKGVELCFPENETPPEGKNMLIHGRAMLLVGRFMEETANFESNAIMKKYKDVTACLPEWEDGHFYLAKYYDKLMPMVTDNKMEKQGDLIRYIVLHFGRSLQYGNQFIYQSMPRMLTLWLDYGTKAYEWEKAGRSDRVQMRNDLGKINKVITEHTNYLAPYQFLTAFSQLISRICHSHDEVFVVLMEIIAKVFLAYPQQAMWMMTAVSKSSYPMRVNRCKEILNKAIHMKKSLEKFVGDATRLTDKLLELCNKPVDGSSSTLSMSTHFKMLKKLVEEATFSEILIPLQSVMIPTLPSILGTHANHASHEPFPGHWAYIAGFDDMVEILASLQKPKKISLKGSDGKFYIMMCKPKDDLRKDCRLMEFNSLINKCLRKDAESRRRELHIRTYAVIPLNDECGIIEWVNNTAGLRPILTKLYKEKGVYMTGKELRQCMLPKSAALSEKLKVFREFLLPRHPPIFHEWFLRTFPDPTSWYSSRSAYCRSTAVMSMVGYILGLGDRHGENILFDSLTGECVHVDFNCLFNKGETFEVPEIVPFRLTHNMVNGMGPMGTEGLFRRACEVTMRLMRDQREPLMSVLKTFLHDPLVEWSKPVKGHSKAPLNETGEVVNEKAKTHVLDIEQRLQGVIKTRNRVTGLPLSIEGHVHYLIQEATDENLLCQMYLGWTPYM", "sequence (Q8WXE1 other isoform, or with tags, fused parts or gaps partner)": "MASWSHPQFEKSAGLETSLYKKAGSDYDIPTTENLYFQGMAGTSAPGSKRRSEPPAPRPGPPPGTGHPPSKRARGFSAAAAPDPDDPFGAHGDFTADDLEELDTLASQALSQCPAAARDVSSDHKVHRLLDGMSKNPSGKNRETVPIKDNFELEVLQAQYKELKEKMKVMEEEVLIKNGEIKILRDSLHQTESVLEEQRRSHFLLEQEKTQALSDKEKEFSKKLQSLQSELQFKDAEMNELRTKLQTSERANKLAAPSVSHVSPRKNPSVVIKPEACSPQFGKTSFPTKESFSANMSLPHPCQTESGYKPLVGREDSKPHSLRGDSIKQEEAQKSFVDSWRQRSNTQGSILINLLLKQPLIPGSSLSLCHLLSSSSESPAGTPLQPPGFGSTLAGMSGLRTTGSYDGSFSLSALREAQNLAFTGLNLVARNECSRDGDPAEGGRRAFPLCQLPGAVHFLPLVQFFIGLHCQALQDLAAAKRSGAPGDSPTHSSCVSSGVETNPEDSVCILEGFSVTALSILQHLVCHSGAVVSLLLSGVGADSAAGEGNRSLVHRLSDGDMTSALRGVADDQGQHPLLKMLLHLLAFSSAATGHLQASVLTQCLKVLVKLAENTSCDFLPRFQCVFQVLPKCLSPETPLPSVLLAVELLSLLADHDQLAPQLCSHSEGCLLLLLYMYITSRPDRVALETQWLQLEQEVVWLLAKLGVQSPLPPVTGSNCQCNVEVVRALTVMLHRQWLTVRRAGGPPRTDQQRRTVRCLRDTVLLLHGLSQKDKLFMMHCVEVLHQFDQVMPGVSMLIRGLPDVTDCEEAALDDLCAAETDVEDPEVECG", "assay": "Binding assay ATR (TR-FRET tracer displacement)", "conditions": "tracer A, TR-FRET; read-out: ATR binding (tracer A) IC50", "method_in_brief": "(§1)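 Full-length human GST-ATR co-purified with ATRIP, pre-complexed 30 min at 22 °C with anti-GST-Tb antibody, then pre-bound with compound 10 min. Tracer A or B added (2 µl of 100 nM solution), 30 min at 22 °C.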", "units": {"IC50": "µM"}, "values": [{"smiles": "c1cc(-c2nccc3c(N4C[C@H]5COC[C@H]5C4)cc(N4CCOCC4)nc23)[nH]n1", "note": "[Example 183, 2-(morpholin-4-yl)-8-(1H-pyrazol-5-yl)-4-[(3aR,6aS)-tetrahydro-1H-furo[3,4-c]pyrrol-5(3H)-yl]-1,7-naphthyridine]", "IC50": 0.649}, {"smiles": "CCS(=N)(=O)c1ccc(-c2cc(N3CCOCC3)nc3c(-c4ccn[nH]4)nccc23)cc1", "note": "(centres unmarked) [Example 12, 4-[4-(S-ethylsulfonimidoyl)phenyl]-2-(morpholin-4-yl)-8-(1H-pyrazol-5-yl)-1,7-naphthyridine]", "IC50": 0.135}, {"smiles": "C[C@@H]1COCCN1c1cc(-c2cccnc2F)c2ccnc(-c3ccn[nH]3)c2n1", "note": "[Example 89, 4-(2-fluoropyridin-3-yl)-2-[(3R)-3-methylmorpholin-4-yl]-8-(1H-pyrazol-5-yl)-1,7-naphthyridine]", "IC50": 0.00811}, {"smiles": "C[C@@H]1COCCN1c1cc(-c2ccc(N3CCNCC3)cc2F)c2ccnc(-c3ccn[nH]3)c2n1", "note": "[Example 81, 4-[2-fluoro-4-(piperazin-1-yl)phenyl]-2-[(3R)-3-methylmorpholin-4-yl]-8-(1H-pyrazol-5-yl)-1,7-naphthyridine]", "IC50": 0.0143}, {"smiles": "COc1ncc(C(F)(F)F)cc1-c1cc(N2CCOCC2)nc2c(-c3ccn[nH]3)nccc12", "note": "[Example 404, 4-[2-methoxy-5-(trifluoromethyl)pyridin-3-yl]-2-(morpholin-4-yl)-8-(1H-pyrazol-5-yl)-1,7-naphthyridine]", "IC50": 0.424}, {"smiles": "C[C@@H]1COCCN1c1cc(C2=CCN(C)CC2)c2ccnc(-c3ccn[nH]3)c2n1", "note": "[Example 243, 2-[(3R)-3-methylmorpholin-4-yl]-4-(1-methyl-1,2,3,6-tetrahydropyridin-4-yl)-8-(1H-pyrazol-5-yl)-1,7-naphthyridine]", "IC50": 0.0365}, {"smiles": "Fc1cnccc1-c1cc(N2CCOCC2)nc2c(-c3ccn[nH]3)nccc12", "note": "[Example 365, 4-(3-fluoropyridin-4-yl)-2-(morpholin-4-yl)-8-(1H-pyrazol-5-yl)-1,7-naphthyridine]", "IC50": 0.103}, {"smiles": "CS(=N)(=O)c1cccc(-c2cc(N3CCOCC3)nc3c(-c4ccn[nH]4)nccc23)c1", "note": "(centres unmarked) [Example 19]", "IC50": 0.293}, {"smiles": "C[C@@H]1COCCN1c1cc(-c2cnc(F)cc2F)c2ccnc(-c3ccn[nH]3)c2n1", "note": "[Example 247, 4-(4,6-difluoropyridin-3-yl)-2-[(3R)-3-methylmorpholin-4-yl]-8-(1H-pyrazol-5-yl)-1,7-naphthyridine]", "IC50": 0.0216}, {"smiles": "Cc1ncc(-c2cc(N3CCOC[C@H]3C)nc3c(-c4ccn[nH]4)nccc23)s1", "note": "[Example 78, 2-[(3R)-3-methylmorpholin-4-yl]-4-(2-methyl-1,3-thiazol-5-yl)-8-(1H-pyrazol-5-yl)-1,7-naphthyridine]", "IC50": 0.011}, {"smiles": "C[C@@H]1COCCN1c1cc(-c2cccc(C(C)(C)O)c2)c2ccnc(-c3ccn[nH]3)c2n1", "note": "[Example 168, 2-(3-{2-[(3R)-3-methylmorpholin-4-yl]-8-(1H-pyrazol-5-yl)-1,7-naphthyridin-4-yl}phenyl)propan-2-ol]", "IC50": 0.53}, {"smiles": "CCCCC(C)(O)c1cc(N2CCOC[C@H]2C)nc2c(-c3ccn[nH]3)nccc12", "note": "(stereo partly drawn) [Example 284, 2-{2-[(3R)-3-methylmorpholin-4-yl]-8-(1H-pyrazol-5-yl)-1,7-naphthyridin-4-yl}hexan-2-ol]", "IC50": 0.0416}, {"smiles": "Cc1cc(-c2cc(N3CCOC[C@H]3C)nc3c(-c4ccn[nH]4)nccc23)c(C)s1", "note": "[Example 240, 4-(2,5-dimethylthiophen-3-yl)-2-[(3R)-3-methylmorpholin-4-yl]-8-(1H-pyrazol-5-yl)-1,7-naphthyridine]", "IC50": 0.03}, {"smiles": "Fc1ccc(-c2cc(N3CCOCC3)nc3c(-c4ccn[nH]4)nccc23)c(F)c1", "note": "[Example 340, 4-(2,4-difluorophenyl)-2-(morpholin-4-yl)-8-(1H-pyrazol-5-yl)-1,7-naphthyridine]", "IC50": 0.0335}, {"smiles": "CNC(=O)[C@@H]1CCCN1c1cc(N2CCOCC2)nc2c(-c3ccn[nH]3)nccc12", "note": "[Example 432, N-methyl-1-[2-(morpholin-4-yl)-8-(1H-pyrazol-5-yl)-1,7-naphthyridin-4-yl]-prolinamide]", "IC50": 2.04}]}, {"target": "full-length human ATR protein (Homo sapiens (Human), UniProt Q13535)", "assay": "Binding assay ATR (TR-FRET tracer displacement)", "conditions": "tracer B, TR-FRET; read-out: ATR binding (tracer B) IC50", "method_in_brief": "as §1", "units": {"IC50": "µM"}, "values": [{"smiles": "CCS(=N)(=O)c1ccc(-c2cc(N3CCOCC3)nc3c(-c4ccn[nH]4)nccc23)cc1", "note": "(centres unmarked) [Example 12, 4-[4-(S-ethylsulfonimidoyl)phenyl]-2-(morpholin-4-yl)-8-(1H-pyrazol-5-yl)-1,7-naphthyridine]", "IC50": 0.0472}, {"smiles": "CS(=N)(=O)c1cccc(-c2cc(N3CCOCC3)nc3c(-c4ccn[nH]4)nccc23)c1", "note": "(centres unmarked) [Example 19]", "IC50": 0.181}]}]}
